Experiment [1] concerns the target T1, DDB1DB/DCAF15 and RBM39 R1R2 complex (Homo sapiens, UniProt Q14498+Q66K64).
T1 construct: Amino acids 150 to 331 of RBM39 were cloned into pGEX4T3; GST (from vector pGEX4T3); TEV cleavage site (N); made in house; host or cells: DDB1DB/His-DCAF15: baculovirus/Sf9 co-expression; RBM39 R1R2: E. coli (pGEX4T3)
The experiment in a line: DCAF15 RBM39 Complex Formation Assay (FRET). The experiment is classed as binding. Conditions: FRET ratio Em 665/Em 615, incubated overnight at 4° C. In a few lines:
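Ternary complex formation read by TR-FRET (Em 665/615, excitation 340 nm) after overnight incubation at 4° C of 20 nM baculovirus DDB1DB/His-DCAF15 and 50 nM E. coli RBM39 RRM1-RRM2 FLAG fragment with 14-point, 3-fold compound dilutions from 1 μM; EC50 from 4-parameter fit.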

The subject of experiment [2] is HCT116 human colorectal carcinoma cells. Nature of the experiment: CellTiter-Glo Luminescent Cell Viability Assay. Conditions: HCT-116, 72 h, 3 days. It is filed as cell-based. Summed up: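 HCT116 cells were exposed for 3 days to compound in triplicate at final concentrations of 5 to 0.0002 […] (1:3 dilutions). Viability was read by CellTiter-Glo luminescence, and IC50 values were calculated.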
On the technique in general: In ATP-based viability assays light output follows the ATP content of the culture.

Bounds are passed on as bounds.

T1 sequence (Q66K64 whole entry, the tested form may be a part): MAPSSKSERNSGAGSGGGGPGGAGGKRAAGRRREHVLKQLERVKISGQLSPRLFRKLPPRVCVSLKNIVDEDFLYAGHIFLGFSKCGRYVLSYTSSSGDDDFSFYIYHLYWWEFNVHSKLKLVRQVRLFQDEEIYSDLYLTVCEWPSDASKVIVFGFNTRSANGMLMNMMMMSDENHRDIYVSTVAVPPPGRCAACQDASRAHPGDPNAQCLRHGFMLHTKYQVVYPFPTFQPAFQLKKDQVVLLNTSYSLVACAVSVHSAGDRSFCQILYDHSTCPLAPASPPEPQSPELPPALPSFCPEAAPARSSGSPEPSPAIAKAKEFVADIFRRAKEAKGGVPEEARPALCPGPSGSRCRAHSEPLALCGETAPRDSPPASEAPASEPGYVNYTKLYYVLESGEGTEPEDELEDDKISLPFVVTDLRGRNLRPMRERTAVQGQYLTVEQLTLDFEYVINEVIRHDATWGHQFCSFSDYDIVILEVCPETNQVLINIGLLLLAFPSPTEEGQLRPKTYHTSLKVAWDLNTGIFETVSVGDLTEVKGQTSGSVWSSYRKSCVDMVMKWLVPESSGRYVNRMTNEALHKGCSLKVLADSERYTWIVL
T1 sequence (Q14498 150-331): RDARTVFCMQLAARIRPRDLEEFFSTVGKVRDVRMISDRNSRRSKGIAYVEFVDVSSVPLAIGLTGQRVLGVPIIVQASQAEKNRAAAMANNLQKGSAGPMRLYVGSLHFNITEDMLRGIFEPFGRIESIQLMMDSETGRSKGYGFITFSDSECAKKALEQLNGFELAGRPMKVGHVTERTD
T1 sequence (Q16531 with tags, fused parts or gaps DEL396-708 partner): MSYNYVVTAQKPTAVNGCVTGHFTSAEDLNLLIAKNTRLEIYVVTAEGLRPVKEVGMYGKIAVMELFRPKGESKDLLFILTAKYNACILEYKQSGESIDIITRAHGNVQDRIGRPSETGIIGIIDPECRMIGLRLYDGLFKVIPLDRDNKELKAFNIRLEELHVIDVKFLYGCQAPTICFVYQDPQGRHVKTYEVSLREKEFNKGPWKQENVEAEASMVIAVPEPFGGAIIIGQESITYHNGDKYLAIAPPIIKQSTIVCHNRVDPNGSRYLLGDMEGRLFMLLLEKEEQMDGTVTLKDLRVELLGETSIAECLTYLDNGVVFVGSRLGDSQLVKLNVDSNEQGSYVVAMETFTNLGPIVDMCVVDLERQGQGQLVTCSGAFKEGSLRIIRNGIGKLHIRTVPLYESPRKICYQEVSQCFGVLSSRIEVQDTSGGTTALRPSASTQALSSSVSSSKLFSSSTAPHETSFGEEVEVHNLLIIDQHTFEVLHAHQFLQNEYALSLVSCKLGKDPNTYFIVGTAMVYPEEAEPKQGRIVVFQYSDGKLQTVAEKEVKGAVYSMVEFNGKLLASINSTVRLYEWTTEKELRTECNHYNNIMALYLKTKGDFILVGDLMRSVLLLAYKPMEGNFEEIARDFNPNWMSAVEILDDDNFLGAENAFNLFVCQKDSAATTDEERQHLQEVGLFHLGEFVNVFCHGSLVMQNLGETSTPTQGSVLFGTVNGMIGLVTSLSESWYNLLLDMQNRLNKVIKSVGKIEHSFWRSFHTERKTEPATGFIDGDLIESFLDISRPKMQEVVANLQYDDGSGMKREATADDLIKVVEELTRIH

The term IC50 denotes the concentration needed to halve the response being measured. What is called EC50 is the midpoint of the concentration-response curve. As for `Cn1ncc(S(=O)(=O)Nc2ccc(Cl)c3c(C#N)c[nH]c23)c1Cl` [Compound 156, 5-chloro-N-(4-chloro-3-cyano-1H-indol-7-yl)-1-methyl-pyrazole-4-sulfonamide], the IC50 in experiment [1] was below 0.25 µM. Besides, the EC50 in experiment [2] was in the range of 0.25 to 1 µM.
The matching figures for `Cc1ccc(NS(=O)(=O)c2cnn(C3(CC#N)COC3)c2)c2[nH]cc(C#N)c12` [Compound 157, N-(3-cyano-4-methyl-1H-indol-7-yl)-1-[3-(cyanomethyl)oxetan-3-yl]pyrazole-4-sulfonamide]: below 0.25 µM and 0.25 to 1 µM.
The matching figures for `N#CCC1(n2cc(S(=O)(=O)Nc3ccc(Cl)c4c(C#N)c[nH]c34)cn2)COC1` [Compound 158, N-(4-chloro-3-cyano-1H-indol-7-yl)-1-[3-(cyanomethyl)oxetan-3-yl]pyrazole-4-sulfonamide]: below 0.25 µM and 0.25 to 1 µM.
For `O=S(=O)(Nc1ccc(Cl)c2c(Cl)c[nH]c12)c1cn[nH]c1` [Compound 159, N-(3,4-dichloro-1H-indol-7-yl)-1H-pyrazole-4-sulfonamide], in that order: below 0.25 µM and below 0.25 µM.
Regarding `N#CCC1(n2cc(S(=O)(=O)Nc3ccc(Cl)c4c(Cl)c[nH]c34)cn2)COC1` [Compound 160, 1-[3-(cyanomethyl)oxetan-3-yl]-N-(3,4-dichloro-1H-indol-7-yl)pyrazole-4-sulfonamide], in experiment [1], the IC50 is below 0.25 µM. For the same molecule, the EC50 in experiment [2] is below 0.25 µM.
With `Cc1ccc(NS(=O)(=O)c2cnn(C)c2N)c2[nH]cc(C#N)c12` [Compound 161, 5-amino-N-(3-cyano-4-methyl-1H-indol-7-yl)-1-methyl-pyrazole-4-sulfonamide], the IC50 in experiment [1] is below 0.25 µM. For the same molecule, the EC50 in experiment [2] was below 0.25 µM.
As to `N#Cc1c[nH]c2c(NS(=O)(=O)c3cnn(CCO)c3)ccc(Cl)c12` [Compound 162, N-(4-chloro-3-cyano-1H-indol-7-yl)-1-(2-hydroxyethyl)pyrazole-4-sulfonamide], the IC50 in experiment [1] is below 0.25 µM. The EC50 in experiment [2] lay in the range of 0.25 to 1 µM.
Consider `O=S(=O)(Nc1ccc(Cl)c2c(Cl)c[nH]c12)c1cnn(CCO)c1` [Compound 163, N-(3,4-dichloro-1H-indol-7-yl)-1-(2-hydroxyethyl)pyrazole-4-sulfonamide], for which the IC50 in experiment [1] is below 0.25 µM. Also, in experiment [2], the EC50 is below 0.25 µM.
As for `N#Cc1c[nH]c2c(NS(=O)(=O)c3cnn(C(CO)(CO)CCl)c3)ccc(Cl)c12` [Compound 164, N-(4-chloro-3-cyano-1H-indol-7-yl)-1-[1-(chloromethyl)-2-hydroxy-1-(hydroxymethyl)ethyl]pyrazole-4-sulfonamide], in experiment [1], the IC50 is below 0.25 µM. Further, the EC50 in experiment [2] was in the range of 0.25 to 1 µM.
For `N#Cc1c[nH]c2c(NS(=O)(=O)c3cnn(C4(CO)COC4)c3)ccc(Cl)c12` [Compound 165, N-(4-chloro-3-cyano-1H-indol-7-yl)-1-[3-(hydroxymethyl)oxetan-3-yl]pyrazole-4-sulfonamide], in that order: below 0.25 µM and 0.25 to 1 µM.
The matching figures for `O=S(=O)(Nc1ccc(Cl)c2c(Cl)c[nH]c12)c1cnn(C(CO)(CO)CCl)c1` [Compound 166, 1-[1-(chloromethyl)-2-hydroxy-1-(hydroxymethyl)ethyl]-N-(3,4-dichloro-1H-indol-7-yl)pyrazole-4-sulfonamide]: below 0.25 µM and 0.25 to 1 µM.
With `O=S(=O)(Nc1ccc(Cl)c2c(Cl)c[nH]c12)c1cnn(C2(CO)COC2)c1` [Compound 167, N-(3,4-dichloro-1H-indol-7-yl)-1-[3-(hydroxymethyl)oxetan-3-yl]pyrazole-4-sulfonamide], the IC50 in experiment [1] was below 0.25 µM. In addition, the EC50 in experiment [2] was 0.25 to 1 µM.
For `COC(=O)C(C)(C)n1cc(S(=O)(=O)Nc2ccc(Cl)c3c(Cl)c[nH]c23)cn1` [Compound 168, methyl 2-[4-[3,4-dichloro-1H-indol-7-yl)sulfamoyl]pyrazol-1-yl]-2-methyl-propanoate], in that order: below 0.25 µM and 0.25 to 1 µM.
For the molecule `COC(=O)C(C)(C)n1cc(S(=O)(=O)Nc2ccc(Cl)c3c(C#N)c[nH]c23)cn1` [Compound 169, methyl 2-[4-[(4-chloro-3-cyano-1H-indol-7-yl)sulfamoyl]pyrazol-1-yl]-2-methyl-propanoate], the concentration for half-maximal inhibition (IC50) in experiment [1] was below 0.25 µM. Besides, the EC50 in experiment [2] fell in the range of 0.25 to 1 µM.
For `CC(C)(CO)n1cc(S(=O)(=O)Nc2ccc(Cl)c3c(Cl)c[nH]c23)cn1` [Compound 170, N-(3,4-dichloro-1H-indol-7-yl)-1-(2-hydroxy-1,1-dimethyl-ethyl)pyrazole-4-sulfonamide], in that order: below 0.25 µM and 0.25 to 1 µM.
`CC(C)(CO)n1cc(S(=O)(=O)Nc2ccc(Cl)c3c(C#N)c[nH]c23)cn1` [Compound 171, N-(4-chloro-3-cyano-1H-indol-7-yl)-1-(2-hydroxy-1,1-dimethyl-ethyl)pyrazole-4-sulfonamide]: the IC50 in experiment [1] is below 0.25 µM. Further, the EC50 in experiment [2] is below 0.25 µM.
For the molecule `CC(CO)n1cc(S(=O)(=O)Nc2ccc(Cl)c3c(Cl)c[nH]c23)cn1` (stereo not drawn) [Compound 172, N-(3,4-dichloro-1H-indol-7-yl)-1-(2-hydroxy-1-methyl-ethyl)pyrazole-4-sulfonamide], the IC50 in experiment [1] is below 0.25 µM. Moreover, the EC50 in experiment [2] lay within 0.25 to 1 µM.
For `CC(CO)(CO)n1cc(S(=O)(=O)Nc2ccc(Cl)c3c(Cl)c[nH]c23)cn1` [Compound 173, N-(3,4-dichloro-1H-indol-7-yl)-1-[2-hydroxy-1-(hydroxymethyl)-1-methyl-ethyl]pyrazole-4-sulfonamide], in that order: below 0.25 µM and below 0.25 µM.
The matching figures for `N#Cc1c[nH]c2c(NS(=O)(=O)c3cnn([C@H]4C[C@@H](O)C4)c3)ccc(Cl)c12` [Compound 174, N-(4-chloro-3-cyano-1H-indol-7-yl)-1-(3-hydroxycyclobutyl)pyrazole-4-sulfonamide]: below 0.25 µM and 0.25 to 1 µM.
The matching figures for `N#Cc1c[nH]c2c(NS(=O)(=O)c3cnn([C@H]4C[C@H](O)C4)c3)ccc(Cl)c12` [Compound 175, N-(4-chloro-3-cyano-1H-indol-7-yl)-1-(3-hydroxycyclobutyl)pyrazole-4-sulfonamide]: below 0.25 µM and 0.25 to 1 µM.
Turning to `O=S(=O)(Nc1ccc(Cl)c2c(Cl)c[nH]c12)c1cnn(C(CO)CO)c1` [Compound 176, N-(3,4-dichloro-1H-indol-7-yl)-1-[2-hydroxy-1-(hydroxymethyl)ethyl]pyrazole-4-sulfonamide], the IC50 in experiment [1] was below 0.25 µM. Besides, in experiment [2], the EC50 fell in the range of 0.25 to 1 µM.
On to `CC(C)(O)Cn1cc(S(=O)(=O)Nc2ccc(Cl)c3c(Cl)c[nH]c23)cn1` [Compound 177, N-(3,4-dichloro-1H-indol-7-yl)-1-(2-hydroxy-2-methyl-propyl)pyrazole-4-sulfonamide], for which the IC50 in experiment [1] was below 0.25 µM. For the same molecule, in experiment [2], the EC50 was in the range of 0.25 to 1 µM.
For `CC(C)(N)Cn1cc(S(=O)(=O)Nc2ccc(Cl)c3c(C#N)c[nH]c23)cn1` [Compound 178, 1-(2-amino-2-methyl-propyl)-N-(4-chloro-3-cyano-1H-indol-7-yl)pyrazole-4-sulfonamide], in that order: below 0.25 µM and above 1 µM.
Turning to `N#Cc1c[nH]c2c(NS(=O)(=O)c3cnn(CC4(O)CCC4)c3)ccc(Cl)c12` [Compound 179, N-(4-chloro-3-cyano-1H-indol-7-yl)-1-[(1-hydroxycyclobutyl)methyl]pyrazole-4-sulfonamide], the IC50 in experiment [1] was below 0.25 µM. In addition, the EC50 in experiment [2] is 0.25 to 1 µM.
The matching figures for `Cn1ncc(S(=O)(=O)Nc2ccc(Cl)c3c(C#N)c[nH]c23)c1N` [Compound 180, 5-amino-N-(4-chloro-3-cyano-1H-indol-7-yl)-1-methyl-pyrazole-4-sulfonamide]: below 0.25 µM and below 0.25 µM.
For the molecule `CS(=O)(=O)Cn1cc(S(=O)(=O)Nc2ccc(Cl)c3c(Cl)c[nH]c23)cn1` [Compound 181, N-(3,4-dichloro-1H-indol-7-yl)-1-(methylsulfonylmethyl)pyrazole-4-sulfonamide], the IC50 in experiment [1] was below 0.25 µM. Also, in experiment [2], the EC50 was below 0.25 µM.
Turning to `CS(=O)(=O)Cn1cc(S(=O)(=O)Nc2ccc(Cl)c3c(C#N)c[nH]c23)cn1` [Compound 182, N-(4-chloro-3-cyano-1H-indol-7-yl)-1-(methylsulfonylmethyl)pyrazole-4-sulfonamide], the IC50 in experiment [1] is below 0.25 µM. The EC50 in experiment [2] is 0.25 to 1 µM.
With `N#Cc1c[nH]c2c(NS(=O)(=O)c3cnn(CC4(C#N)CC4)c3)ccc(Cl)c12` [Compound 183, N-(4-chloro-3-cyano-1H-indol-7-yl)-1-[(1-cyanocyclopropyl)methyl]pyrazole-4-sulfonamide], in experiment [1], the IC50 was below 0.25 µM. The EC50 in experiment [2] fell in the range of 0.25 to 1 µM.
Turning to `N#Cc1c[nH]c2c(NS(=O)(=O)c3cnn(CC4(O)CCOCC4)c3)ccc(Cl)c12` [Compound 184, N-(4-chloro-3-cyano-1H-indol-7-yl)-1-[(4-hydroxytetrahydropyran-4-yl)methyl]pyrazole-4-sulfonamide], the IC50 in experiment [1] was below 0.25 µM. Further, in experiment [2], the EC50 was above 1 µM.
Consider `CC(C)(O)Cn1ncc(S(=O)(=O)Nc2ccc(Cl)c3c(C#N)c[nH]c23)c1F` [Compound 188, N-(4-chloro-3-cyano-1H-indol-7-yl)-5-fluoro-1-(2-hydroxy-2-methyl-propyl)pyrazole-4-sulfonamide], for which the IC50 in experiment [1] was below 0.25 µM. Further, in experiment [2], the EC50 lay in the range of 0.25 to 1 µM.

(Values after patent US20250368627A1, “PYRAZOLESULFONAMIDES AS ANTITUMOR AGENTS” (Peloton Therapeutics, Inc., a fully owned subsidiary of …, priority 2019, published 2025).)
